Laboratory results taken from US9180115B2, “Cyclohexylamines” (Asana Biosciences, LLC, priority 2011, dated 2015).
Values joined by “and” are separate entries in the source; they are usually repeats but may differ in a detail not shown here. Identical values can stand only once. Like-named read-outs stand apart in the source and are kept apart here.

What was measured:
[1] = test system: Male Sprague Dawley (SD) rats; experiment: In vivo assay of mechanical nociception (rat pinch model, perisciatic injection)
[2] = molecular target: T1, human Nav1.5 sodium channel (Homo sapiens, UniProt Q14524); experiment: FLIPR membrane potential assay in hNav1.5-HEK293 cells; type: cell-based
T1 construct: host or cells: HEK-293
T1 sequence (Q14524 whole entry): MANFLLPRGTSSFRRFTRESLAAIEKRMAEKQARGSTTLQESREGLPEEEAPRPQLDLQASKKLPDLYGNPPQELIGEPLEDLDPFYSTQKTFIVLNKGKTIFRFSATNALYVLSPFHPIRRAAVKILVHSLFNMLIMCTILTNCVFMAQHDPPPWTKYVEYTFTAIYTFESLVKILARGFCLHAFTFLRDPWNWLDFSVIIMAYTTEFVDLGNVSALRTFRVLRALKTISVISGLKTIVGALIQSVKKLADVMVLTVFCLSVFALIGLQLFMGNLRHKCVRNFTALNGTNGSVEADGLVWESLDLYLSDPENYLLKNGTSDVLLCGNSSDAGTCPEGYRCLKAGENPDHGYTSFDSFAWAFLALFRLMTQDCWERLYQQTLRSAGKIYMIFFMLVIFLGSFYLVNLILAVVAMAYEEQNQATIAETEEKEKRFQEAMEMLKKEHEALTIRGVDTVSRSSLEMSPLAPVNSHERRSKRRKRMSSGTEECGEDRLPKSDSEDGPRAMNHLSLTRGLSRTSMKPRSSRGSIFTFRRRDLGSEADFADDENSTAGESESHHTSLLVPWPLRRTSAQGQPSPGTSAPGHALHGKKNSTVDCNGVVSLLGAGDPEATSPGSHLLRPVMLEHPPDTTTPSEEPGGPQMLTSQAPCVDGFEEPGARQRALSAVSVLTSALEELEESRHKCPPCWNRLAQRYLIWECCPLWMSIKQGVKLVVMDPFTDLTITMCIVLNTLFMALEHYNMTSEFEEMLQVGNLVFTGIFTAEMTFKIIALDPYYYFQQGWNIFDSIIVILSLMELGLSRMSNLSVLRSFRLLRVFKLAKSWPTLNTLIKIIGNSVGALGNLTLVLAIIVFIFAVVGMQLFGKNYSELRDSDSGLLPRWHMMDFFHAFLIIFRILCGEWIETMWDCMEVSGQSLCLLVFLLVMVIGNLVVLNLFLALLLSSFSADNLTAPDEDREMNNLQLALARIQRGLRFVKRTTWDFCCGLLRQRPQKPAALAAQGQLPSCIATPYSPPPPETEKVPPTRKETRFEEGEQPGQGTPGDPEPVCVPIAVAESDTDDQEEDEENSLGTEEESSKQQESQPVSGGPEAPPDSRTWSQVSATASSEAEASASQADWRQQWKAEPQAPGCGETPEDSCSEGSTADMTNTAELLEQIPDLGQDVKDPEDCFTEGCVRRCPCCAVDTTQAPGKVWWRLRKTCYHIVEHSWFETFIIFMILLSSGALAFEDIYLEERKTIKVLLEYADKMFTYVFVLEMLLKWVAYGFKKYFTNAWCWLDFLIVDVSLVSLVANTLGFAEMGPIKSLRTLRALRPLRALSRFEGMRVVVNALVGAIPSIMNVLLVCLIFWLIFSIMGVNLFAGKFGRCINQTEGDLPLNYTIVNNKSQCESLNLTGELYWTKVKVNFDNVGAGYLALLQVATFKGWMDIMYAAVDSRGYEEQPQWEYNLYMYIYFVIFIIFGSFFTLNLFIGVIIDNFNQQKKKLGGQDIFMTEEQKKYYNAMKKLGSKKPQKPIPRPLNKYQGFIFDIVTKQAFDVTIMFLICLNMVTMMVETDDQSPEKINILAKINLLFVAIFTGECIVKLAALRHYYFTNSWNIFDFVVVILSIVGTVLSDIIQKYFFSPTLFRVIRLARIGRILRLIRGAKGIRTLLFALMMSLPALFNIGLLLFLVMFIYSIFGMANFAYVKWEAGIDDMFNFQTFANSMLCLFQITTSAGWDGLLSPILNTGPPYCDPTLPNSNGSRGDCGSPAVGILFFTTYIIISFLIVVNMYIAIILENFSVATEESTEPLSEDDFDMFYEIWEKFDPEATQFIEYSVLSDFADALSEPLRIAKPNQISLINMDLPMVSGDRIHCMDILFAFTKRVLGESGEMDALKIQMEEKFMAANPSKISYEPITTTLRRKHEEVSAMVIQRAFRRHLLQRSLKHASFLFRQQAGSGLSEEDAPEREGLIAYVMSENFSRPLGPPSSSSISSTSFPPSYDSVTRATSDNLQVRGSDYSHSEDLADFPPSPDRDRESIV
Experimental: C. Method for Assessing the Extent of Inhibition of Sodium Channel Response with Compounds in hNav1.5-HEK293 Cells.
The following assay was used to assess the tendency of the test compounds to block the dominant cardiac sodium channel isoform. Nav1.5 sodium channels are known to be permeable to quaternary sodium channel blockers such as QX-314 and, thus, the assay was performed in the absence of a chemical TRPV1 agonist.
The hNav1.5-HEK-293 cells (CreaCell, France, a human embryonic kidney cell line expressing the human Nav1.5 sodium channel) were cultured in Growth medium (containing 1×DMEM (Gibco)+10% FBS (PAA Gold)+2% glutamine 100 mM (Gibco)+1% penicillin 10,000 U/mL streptomycin 10,000 μg/mL (Invitrogen)+1.2 mg/mL Geneticin® G418 (Invitrogen)) in 75 mL cell bind flasks (Corning). The following steps were followed exactly as mentioned. The spent medium was discarded and the cells rinsed once with PBS-1×. Accutase® (1-2 mL; PAA) solution was added. The plate was placed on a 37° C. warming incubator 3-5 minutes. As soon as cells are detached, 37° C. complete medium (9 mL) was added. The cell suspension is drawn into a sterile pipette and cells homogenized gently to dissociate cell aggregates. The cells were counted using a hemocytometer with Blue Trypan and then centrifuged 5 minutes at 400 g. The cells can be amplified or maintained by seeding […] in a T75 flask (final volume: 15 mL). 8000 cells in 50 μL Growth medium was added to each well of 384-well, clear bottomed, sterile poly-D-lysine coated plates with lid (Greiner-bio one) inside the laminar air-flow. The plates were incubated at 37° C. and 5% CO2 in a CO2 incubator (Thermo) for 48 hours.
On the day of the assay, cells were washed with Assay buffer, which was prepared using the components and amounts in the following Table 5. pH was adjusted to 7.4 with NaOH, volume made up to 500 mL with Milli-Q® water.
Assay Buffer was added to the cells and incubated at rt (25° C.) for 10 minutes. The compounds were diluted in assay buffer. The compounds were added and incubated at rt (25° C.) for 10 minutes. Red FMP Dye (MDC) was added to the cells and the plate was incubated at rt (25° C.) for 30 minutes. Veratridine stock (20 mM; Sigma) was prepared in DMSO; veratridine (final concentration of 30 μM) in assay buffer was added to each well of the cell seeded plates in the FLIPR and read taken for 10 minutes. The following table provides data illustrating the sodium channel activity of the test compounds in response to the presence or absence of heat stimulation in cells expressing hTRPV1. The compounds were tested for differential activity at 25° C. and 47° C. and at two test concentrations.

[3] = test system: sodium channel response in hTRPV1-N1E115 cells; experiment: FLIPR membrane potential assay of sodium channel response in hTRPV1-N1E115 cells with or without heat (47° C.) activation; type: cell-based; details: for hTRPV1-N1E Nav 0.1 mM (% inhibition) 25° C. / hTRPV1-N1E Nav 1 mM (% inhibition) 25° C.: 25° C. (no heat activation); for IC50: read-out: hTRPV1-N1E IC50 (μM) 47° C.; for hTRPV1-N1E Nav 0.1 mM (% inhibition) 47° C. / hTRPV1-N1E Nav 1 mM (% inhibition) 47° C.: 47° C. (heat activated)
Description: In one embodiment, a modified FLIPR® (Fluorometric Imaging Plate Reader) based assay system was developed which is capable of discriminating between non-specific versus hTRPV1-mediated entry of test compounds. Advantageously, the assay system utilizes heat activated opening of hTRPV1 channels followed by an assessment of internal sodium channel block. The assay allows a permanently charged compound to selectively enter through opened hTRPV1 channels and that compound's potency in inhibiting sodium channels from the cytoplasm side of the same cell can be assessed and quantified.
The test compounds are diluted in the Assay Buffer and added to each well of a specific 384-well ‘compound plate’, which serves as a source plate for compound addition using the FLIPR® platform. The concentration of compounds in the compound-plate was adjusted to achieve the desired final concentration when added to the cells in the ‘cell-plate’. After completion of the dye incubation period, the dye loaded cell-plates and the compound source plates are inserted into the FLIPR® Tetra device with a 384 FLIPR® tip box (Molecular Devices, Inc.) according to manufacturer's instructions. The compounds are robotically added to the dye loaded cell-plates using software integral to the FLIPR® Tetra instrument.
Immediately following compound addition, hTRPV1 is activated, in one of the duplicate cell plates, by heating. Specifically, entire multi-well plate containing the compound-cells mixture is incubated at 47° C. for 10 minutes, after which they are returned to room temperature (about 25° C.) for a further 30 minutes. Heat activation of hTRPV1 was omitted from the replicate cell plate which was simply maintained at room temperature for the entire 40 minutes.
A membrane potential response is elicited in the dye- and compound-loaded cells by the addition of veratridine which is a known sodium channel ‘agonist’. As illustrated in an example herein, an agonist plate containing veratridine (Sigma) is prepared in advance and is inserted into suitable devices such as, e.g., the FLIPR® TETRA device for a “2nd addition” as instructed by the manufacturer. The concentration of veratridine in the ‘agonist plate’ was adjusted to achieve a final concentration of 100 μM when added to the cells in the cell-plate. Final concentrations of veratridine greater or lesser than 100 μM may also be used but the signal measured by the FLIPR® TETRA device or another suitable device may vary accordingly.
The exposure of the cells in the cell-plate to veratridine induces sodium channels in the cells to open and the resulting ion flux produces a membrane potential depolarization that is detected as a fluorescence signal by the FLIPR® Tetra Device. The activity of test compounds is determined by their ability to attenuate the veratridine-induced fluorescence signal, the most promising compounds are those that show an enhanced activity in the heat-activated cell plate over the non-heat-activated cell plate. This differential activity reflects enhanced compound uptake via the heat activated and open hTRPV1 channels and rests on the fact that sodium channel block requires test compounds to act from the cytoplasmic side of the cell membrane.
In vitro assays were developed for assessing the inhibition of sodium channel response with compounds following stimulation by heat (47° C.) in cells expressing hTRPV1.
(v) Membrane potential Assay to Assess Sodium Channel Function in hTRPV1-Expressing Cells • Cells were plated at 5000 per 50 μL [DMEM+10% FBS+300 μg/mL H\hygromycin] per well, in a 384 clear bottom poly-D-lysine coated plate and incubated at 37° C. and 5% CO2 for 48 hours. On the day of the assay, media were discarded gently and 30 μL of the dye [FMP blue dye was prepared in assay buffer] per well was added and dye-loading was allowed to proceed for 20 min at room temperature. […]

[4] = test compound 0.5%, lidocaine 2%, injection 200 μL
[5] = read-out: HEK Nav 1.5 IC50 (μM) (AVG)

SMILES: C[C@@H](C[N+](C)(C)C1CCCCC1)OC(=O)c1ccc(C(C)(C)C)cc1.[Br-] [Example 5, (S)—N-[2-((4-(tert-butyl)benzoyl)oxy)propyl]-N,N-dimethylcyclohexanaminium bromide]
- paw withdrawal vocalization force ([1]; 0.45% solution with 2% lidocaine, FIG. 1): remained at cut-off for the duration of the experiment
- Average Time of Analgesia ([1]; test compound 0.2%, lidocaine 2%, injection 200 μL): 2 h
- Average Time of Analgesia ([1]; test compound 0.3%, lidocaine 2%, injection 200 μL): 24 h
- Average Time of Analgesia ([1]; test compound 0.4%, lidocaine 2%, injection 200 μL): 44 h
- Average Time of Analgesia ([1]; test compound 0.45%, lidocaine 2%, injection 200 μL): >64 h
- IC50 ([2]; HEK Nav 1.5 IC50 (μM) (AVG)): 305 µM
- hTRPV1-N1E Nav 0.1 mM (% inhibition) 25° C. [3]: 45 (N = 4) %
- IC50 ([3]; 47° C.): 10 to 100 µM

SMILES: C[C@@H](C[N+](C)(C)C1CCCCC1)OC(=O)c1ccc(C(C)(C)C)cc1.[I-] [Example 46, (S)-N-[2-((4-(tert-butyl)benzoyl)oxy)propyl]-N,N-dimethylcyclo-hexanaminium iodide]
- Average Time of Analgesia [1, 4]: 24 h
- IC50 ([2]; HEK Nav 1.5 IC50 (μM) (AVG)): 232 µM
- hTRPV1-N1E Nav 0.1 mM (% inhibition) 25° C. [3]: 40 (N = 4) %

SMILES: C[C@H](C[N+](C)(C)C1CCCCC1)OC(=O)c1ccc(C(C)(C)C)cc1.[I-] [Example 47, (R)-N-[2-((4-(tert-butyl)benzoyl)oxy)propyl]-N,N-dimethylcyclo-hexanaminium iodide]
- Average Time of Analgesia [1, 4]: 24 h
- IC50 ([2]; HEK Nav 1.5 IC50 (μM) (AVG)): 255 µM
- hTRPV1-N1E Nav 0.1 mM (% inhibition) 25° C. [3]: 54 (N = 4) %
- IC50 ([3]; 47° C.): 10 to 100 µM

SMILES: CC1CCC([N+](C)(C)CC(C)OC(=O)c2ccc(C(C)(C)C)cc2)CC1.[I-] (stereo not drawn) [Example 38, N-[2-((4-(tert-butyl)benzoyl)oxy)propyl]-N,N,4-trimethylcyclo-hexanaminium iodide]
- IC50 [2, 5]: 54 µM
- hTRPV1-N1E Nav 0.1 mM (% inhibition) 25° C. [3]: 75 (N = 4) %
- hTRPV1-N1E Nav 0.1 mM (% inhibition) 47° C. [3]: 95 (N = 4) %
- IC50 ([3]; 47° C.): 10 to 100 µM

SMILES: Cc1cccc(C)c1C(=O)OC(C)C[N+](C)(C)C1CCCCC1.[I-] (stereo not drawn) [Example 6, N-[2-((2,6-Dimethylbenzoyl)oxy)propyl]-N,N-dimethylcyclohexanaminium iodide]
- analgesic effects in the absence of lidocaine ([1]; absence of lidocaine): analgesic effects of significant duration
- Average Time of Analgesia ([1]; test compound 0.5%, lidocaine 0%, injection 200 μL): 5 h
- Average Time of Analgesia ([1]; test compound 0.5%, lidocaine 2%, injection 100 μL): 8 h
- Average Time of Analgesia [1, 4]: 14 h and 10 h
- inhibition at 10 min, 0.5 mM ([2]; human, hNav1.5-HEK293 cells (HEK-293 cells expressing human Nav1.5), pH 7.4, 0.5 mM, read-out: HEK Nay 1.5% inh. @ 0.5 mM): 30%
- inhibition at 10 min, 1.5 mM ([2]; human, hNav1.5-HEK293 cells (HEK-293 cells expressing human Nav1.5), pH 7.4, 1.5 mM, read-out: HEK Nav 1.5% inh. @ 1.5 mM): 68%
- IC50 [2, 5]: 684 µM
- hTRPV1-N1E Nav (% inhibition) 25° C., 0.5 mM ([3]; 0.5 mM, 25° C.): 24 (N = 2, %
- hTRPV1-N1E Nav (% inhibition) 47° C., 0.5 mM ([3]; 0.5 mM, 47° C.): 80 (N = 2, %
- hTRPV1-N1E Nav (% inhibition) 25° C., 5 mM ([3]; 5 mM, 25° C.): 58 (N = 2, %
- hTRPV1-N1E Nav (% inhibition) 47° C., 5 mM ([3]; 5 mM, 47° C.): 92 (N = 2, %
- hTRPV1-N1E IC50 (μM) 47° C. ([3]; 47° C.): B ′

SMILES: Cc1cc(C)c(C(=O)OC(C)C[N+](C)(C)C2CCC(C)CC2)c(C)c1.[I-] (stereo not drawn) [Example 39, N,N,4-Trimethyl-N-[2-((2,4,6-trimethyl-benzoyl)oxy)propyl] cyclohexanaminium iodide]
- IC50 [2, 5]: 89 µM
- hTRPV1-N1E Nav 0.1 mM (% inhibition) 25° C. [3]: 41 (N = 4) %
- hTRPV1-N1E Nav 0.1 mM (% inhibition) 47° C. [3]: 7 (N = 4) %
- IC50 ([3]; 47° C.): 10 to 100 µM

SMILES: CC(C[N+](C)(C)C1CCCCC1)OC(=O)c1sc2ccccc2c1Cl.[I-] (stereo not drawn) [Example 31, N-[2-((3-Chloro-benzo[b]thiophene-2-carbonyl)oxy)propyl]-N,N-dimethyl-cyclohexanaminium iodide]
- IC50 [2, 5]: 160 µM
- hTRPV1-N1E Nav 0.1 mM (% inhibition) 25° C. [3]: 27 (N = 4) %
- hTRPV1-N1E Nav 0.1 mM (% inhibition) 47° C. [3]: 94 (N = 4) %
- IC50 ([3]; 47° C.): 10 to 100 µM

SMILES: C[C@H](C[N+](C)(C)C1CCCCC1)OC(=O)c1ccc(C(C)(C)C)cc1.[Br-] [Example 48, (R)-N-[2-((4-(tert-butyl)benzoyl)oxy)propyl]-N,N-dimethylcyclo-hexanaminium bromide]
- IC50 ([2]; HEK Nav 1.5 IC50 (μM) (AVG)): 252 µM
- hTRPV1-N1E Nav 0.1 mM (% inhibition) 25° C. [3]: 48 (N = 4) %
- IC50 ([3]; 47° C.): 10 to 100 µM

SMILES: Cc1cccc(C)c1C(=O)OC(C)C[N+](C)(C)C1CCC(C)CC1.[I-] (stereo not drawn) [Example 36, N-[2-((2,6-Dimethylbenzoyl)oxy)propyl]-N,N,4-trimethylcyclo-hexanaminium iodide]
- hTRPV1-N1E Nav 0.1 mM (% inhibition) 25° C. [3]: 50 (N = 4) %
- hTRPV1-N1E Nav 0.1 mM (% inhibition) 47° C. [3]: 83 (N = 4) %
- hTRPV1-N1E Nav 1 mM (% inhibition) 25° C. [3]: 84 (N = 4) %
- hTRPV1-N1E Nav 1 mM (% inhibition) 47° C. [3]: 95 (N = 4) %
- IC50 ([3]; 47° C.): 10 to 100 µM

SMILES: Cc1cccc(C)c1C(=O)OCC[N+](C)(C)C1CCCCC1.[I-] [Example 40, N-[2-((2,6-Dimethylbenzoyl)oxy)ethyl]-N,N-dimethylcyclo-hexanaminium iodide]
- hTRPV1-N1E Nav 0.1 mM (% inhibition) 25° C. [3]: 10 (N = 4) %
- hTRPV1-N1E Nav 0.1 mM (% inhibition) 47° C. [3]: 43 (N = 4) %
- hTRPV1-N1E Nav 1 mM (% inhibition) 25° C. [3]: 12 (N = 4) %
- hTRPV1-N1E Nav 1 mM (% inhibition) 47° C. [3]: 80 (N = 4) %
